In patent publication US12636379B2, “Microbubble-chemotherapeutic agent complex for sonodynamic therapy” (UNIVERSITY OF ULSTER, priority 2015, dated 2026):

Legend:
BxPc-3 tumours = test: In vivo cytotoxicity: intratumoural treatment of ectopic xenograft tumours, tumour volume; design: species or system mice; conditions: 9 days after single intratumoural treatment; 440 μM gemcitabine or 5-FU alone; mix (90.8 μM RB, 440 μM 5FU) +US
Text: FIG. 8 is a plot of (a) % change in tumour volume and (b) average body weight for mice treated with (i) no treatment (open diamonds) (ii) ultrasound only (filled diamonds) (iii) gemcitabine (open triangles) (iv) O2MB-RB/O2MB-5FU mix-US (open circles) (v) O2MB-RB+US (filled squares) (vi) O2MB-RB/O2MB-5FU mix+US (filled circles). Not shown for ease of illustration are treatments with 5-FU alone, O2MB-RB-US, O2MB-5FU+US, O2MB-5FU-US. The RB, 5-FU and gemcitabine concentrations were kept constant in each case at 0.184 mg/kg (90.8 μM), 0.115 mg/kg (440 μM) and 0.264 mg/kg (440 μM) respectively. Ultrasound treatment was delivered for 30 sec at frequency of 1 MHz, an ultrasound power density of 3.0 Wcm^−2 and a duty cycle of 50%, pulse frequency=100 Hz. […]
BxPc-3 cells were maintained in RPMI-1640 medium supplemented with 10% foetal calf serum as described above. […] Once the tumours had reached an average volume of 218 mm^3, calculated from the geometric mean diameter using the equation tumour volume=4πR^3/3, animals were randomly distributed into 10 groups (n=4). […] After treatment, animals were allowed to recover from anaesthesia and tumour volume and body weight were recorded daily for nine days. The % increase in tumour volume was calculated employing the pre-treatment measurements for each group.

MIA PaCa-2 cells = test: Combined antimetabolite/sonodynamic therapy with free agents, MTT assay; conditions: 3 μM RB and/or 50 μM 5FU, 3 h; US 30 sec, 1 MHz; MTT 24 h; n=6
Method: The cells were incubated with either 3 μM RB and 50 μM 5FU (or both) for 3 h as these represent sub-lethal doses and enabled synergy to be identified if evident. Ultrasound exposure was 30 sec, 3 W/cm^2, 1 MHz, 50% duty cycle; pulse repetition frequency of […]. Cell viability was determined 24 h following treatment using a MTT assay.
Human primary pancreatic adenocarcinoma cell lines MIA PaCa-2 were maintained in Dulbecco's Modified Eagle's Medium and supplemented with 10% (v/v) foetal bovine serum in a humidified 5% CO2 atmosphere at 37° C. The cells were plated into the wells of a 96-well plate at a concentration of 4×10^3 cells per well and incubated for 21 h at 37° C. in a humidified 5% CO2 atmosphere. The medium was then removed and wells treated with either Rose Bengal, ([…]), 5-Fluorouracil (50 μM) or a combination of both RB (3 μM) and 5-FU (50 μM) for 3 h. The drug solutions were then removed, fresh media added and selected wells treated with ultrasound delivered using a Sonidel SP100 sonoporator (30 sec, frequency=1 MHz, ultrasound power density=3.0 Wcm^−2, duty cycle=50% with pulse repetition frequency=100 Hz). The cells were then incubated for 24 h before cell viability was determined using a MTT assay.

[1] = Fluorescence emission spectra compared with Cardio Green; assay type: physicochemical
Text: The new compounds clearly show similar absorption profiles to Cardio Green. […] This is attributed to increased ISC due to the additional iodine atoms.

[2] = Singlet oxygen production (SOSG intensity) on 780 nm excitation; assay type: physicochemical; conditions: excited at 780 nm
Text: Increased SOSG intensity is indicative of singlet oxygen production.

[3] = system: ectopic BxPC-3 pancreatic tumors; test: Tumour localisation after tail vein administration; assay type: in vivo, mice; conditions: 18 hours following tail vein administration
Mia Paca cells = test: In vitro cytotoxicity with 780 nm irradiation; assay type: cell-based; conditions: exposed to 780 nm irradiation
BxPC-3 cells = test: In vitro cytotoxicity with 780 nm irradiation; assay type: cell-based; conditions: exposed to 780 nm irradiation
[4] = system: HeLa cervical cancer cell line; test: In vitro cytotoxicity with 780 nm excitation; assay type: cell-based; conditions: excited at 780 nm
Bcl2 = conditions: MIA PaCa-2 pancreatic cancer xenograft model; cited from earlier work
ectopic BxPC-3 tumours = test: Systemic (IP) gemcitabine therapy of ectopic tumours, tumour volume; assay type: in vivo, mice; conditions: 120 mg/kg IP on days 0, 3 and 8
Method: FIG. 9 is a plot of % change in tumour volume for mice treated with IP gemcitabine (120 mg/kg on days 0, 3 and 8) (filled squares) or vehicle only (filled diamonds). Error bars represent+the standard error where n=4.
In order to compare the effectiveness of the combined SDT/5-FU therapy against systemic gemcitabine therapy, we treated mice bearing ectopic BxPC-3 tumours with gemcitabine (120 mg/kg) administered by intraperitoneal (IP) injection on days 0, 3 and 8. Tumour volume was measured daily as before and compared to untreated animal controls.

| fluorescence emission in comparison to cardio green [1] | singlet oxygen production [2] | Compound | tumour growth over original starting volume (BxPc-3 tumours) | reduction in cell viability with ultrasound relative to the same treatment without ultrasound (MIA PaCa-2 cells) | cytotoxicity compared with cardio green (Mia Paca cells) | cytotoxicity compared with cardio green (BxPC-3 cells) | toxicity compared with Cardio Green [4] | other results |
| --- | --- | --- | --- | --- | --- | --- | --- | --- |
|  |  | O=c1[nH]cc(F)c(=O)[nH]1 [Compound 5-FU, 5-fluorouracil] | 123.3% | 5.9% |  |  |  |  |
| remains similar to cardiogreen | more singlet oxygen than Cardio Green | CC1(C)C(/C=C/C2=C(Cl)C(=C/C=C3/N(CCCCS(=O)(=O)O)c4ccc(I)cc4C3(C)C)/CCC2)=[N+](CCCCS(=O)(=O)O)c2ccc(I)cc21 [Compound I2-IRCYDYE, 2-((E)-2-((E)-2-chloro-3-((E)-2-(5-iodo-3,3-dimethyl-1-(4-sulfobutyl)indolin-2-ylidene)ethylidene)cyclohex-1-en-1-yl)vinyl)-5-iodo-3,3-dimethyl-1-(4-sulfobutyl)-3H-indol-1-ium] |  |  | significantly more cytotoxic | significantly more cytotoxic | more toxic | tumour localisation [3]: localises in tumor |
| considerably quenched | more singlet oxygen than Cardio Green | CC1(C)C(/C=C/C2=C(Cl)C(=C/C=C3/N(CCCCS(=O)(=O)O)c4cc(I)cc(I)c4C3(C)C)/CCC2)=[N+](CCCCS(=O)(=O)O)c2cc(I)cc(I)c21 [Compound I4-IRCYDYE, 2-((E)-2-((E)-2-chloro-3-((E)-2-(4,6-diiodo-3,3-dimethyl-1-(4-sulfobutyl)indolin-2-ylidene)ethylidene)cyclohex-1-en-1-yl)vinyl)-4,6-diiodo-3,3-dimethyl-1-(4-sulfobutyl)-3H-indol-1-ium] |  |  | significantly more cytotoxic | significantly more cytotoxic | more toxic |  |
|  |  | CN1CCN(CCCNc2cc3c4c(c(NCCCN5CCN(C)CC5)cc5c4c2C(=O)N(CCCN2CCOCC2)C5=O)C(=O)N(CCCN2CCOCC2)C3=O)CC1 [MM41] |  |  |  |  |  | reduction of Bcl2 levels at the protein level (Bcl2): 40% |
|  |  | O=C1OC2(c3cc(I)c(O)c(I)c3Oc3c2cc(I)c(O)c3I)c2c(Cl)c(Cl)c(Cl)c(Cl)c21 [RB, Rose Bengal] |  | 11.1% |  |  |  |  |
|  |  | Nc1ccn([C@@H]2O[C@H](CO)[C@@H](O)C2(F)F)c(=O)n1 [gemcitabine] | 125.1% |  |  |  |  | tumour volume relative to starting tumour volume (ectopic BxPC-3 tumours): at no point in the therapy did the tumour volume decrease below the starting tumour volume; tumour volume increase (ectopic BxPC-3 tumours; control group about 100%): 38%; increase in tumour volume at day 6 (ectopic BxPC-3 tumours; day 6): 20% |
